{"source": "patent US6780650B2", "about": "(priority 2000, dated 2004)", "key": {"hVR1 receptor [1]": {"biological_target": "T1, hVR1 receptor (Homo sapiens, UniProt Q8NER1)", "T1 construct": "expressed in transfected cells; host or cells: HEK 293 (HEK 293-hVR1, zeocin-selected); membranes", "T1 sequence (Q8NER1 whole entry)": "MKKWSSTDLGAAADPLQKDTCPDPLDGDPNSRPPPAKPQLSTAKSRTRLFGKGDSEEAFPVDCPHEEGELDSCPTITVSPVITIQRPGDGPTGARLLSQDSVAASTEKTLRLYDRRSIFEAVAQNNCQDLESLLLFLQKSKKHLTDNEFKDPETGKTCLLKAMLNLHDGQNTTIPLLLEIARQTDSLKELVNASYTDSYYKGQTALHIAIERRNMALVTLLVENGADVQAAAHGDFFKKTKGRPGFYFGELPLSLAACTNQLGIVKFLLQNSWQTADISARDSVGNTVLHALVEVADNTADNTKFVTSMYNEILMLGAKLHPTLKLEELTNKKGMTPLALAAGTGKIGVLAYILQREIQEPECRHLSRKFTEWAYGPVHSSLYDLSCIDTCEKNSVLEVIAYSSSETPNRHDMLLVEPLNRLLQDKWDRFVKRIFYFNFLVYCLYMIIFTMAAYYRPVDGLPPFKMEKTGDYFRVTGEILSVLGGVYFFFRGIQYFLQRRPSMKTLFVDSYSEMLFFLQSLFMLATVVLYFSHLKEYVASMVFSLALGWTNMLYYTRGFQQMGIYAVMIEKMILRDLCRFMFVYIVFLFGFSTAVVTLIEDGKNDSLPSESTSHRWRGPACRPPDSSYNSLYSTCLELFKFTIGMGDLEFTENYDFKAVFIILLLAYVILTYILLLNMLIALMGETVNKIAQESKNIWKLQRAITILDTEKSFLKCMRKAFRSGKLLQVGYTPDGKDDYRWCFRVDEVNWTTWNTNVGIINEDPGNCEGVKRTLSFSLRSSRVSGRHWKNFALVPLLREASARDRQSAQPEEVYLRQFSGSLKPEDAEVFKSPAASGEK", "assay_type": "binding", "conditions": "pH 8"}, "hVR1 receptor [2]": {"biological_target": "T1, hVR1 receptor", "conditions": "read-out: IC50, inhibition of [^3H]RTX binding to hVR1 receptor"}, "hVR1 receptor [3]": {"biological_target": "T1, hVR1 receptor", "assay_type": "binding", "conditions": "for Kd: read-out: Kd of [^3H]RTX binding to hVR1 receptor"}}, "note": "Where two headings read alike, the source gives them in different places."}
{"smiles": "O=C(O)CN(CCOCCOCCN(CC(=O)O)CC(=O)O)CC(=O)O", "note": "[EGTA]", "values": [{"measurement": "inhibition of [^3H]RTX binding", "setting": "hVR1 receptor [1]", "result": 70, "unit": "%"}]}
{"smiles": "C=C(C)[C@]12C[C@@H](C)[C@@]34O[C@](Cc5ccccc5)(O[C@@H]1[C@@H]3C=C(COC(=O)Cc1ccc(O)c(OC)c1)C[C@]1(O)C(=O)C(C)=C[C@@H]41)O2", "note": "[Resiniferatoxin]", "values": [{"measurement": "IC50", "setting": "hVR1 receptor [2]; pH 7.4", "result": "0.78 ± 0.15", "unit": "nM"}, {"measurement": "IC50", "setting": "hVR1 receptor [2]; pH 8.6", "result": "0.25 ± 0.03", "unit": "nM"}]}
{"smiles": "C=C(C)[C@]12C[C@@H](C)[C@@]34O[C@](Cc5ccccc5)(O[C@@H]1[C@@H]3C=C(COC(=O)Cc1ccc(O)c(OC)c1)C[C@]1(O)C(=O)C(C)=C[C@@H]41)O2", "note": "[[^3H]RTX, [^3H]resiniferatoxin]", "values": [{"measurement": "Kd", "setting": "hVR1 receptor [3]; pH 5.1", "result": "6.62 ± 5.58", "unit": "nM"}, {"measurement": "Bmax of [^3H]RTX binding to hVR1 receptor", "setting": "hVR1 receptor [3]; pH 7.4", "result": "928 ± 53", "unit": "fmol/mg protein"}, {"measurement": "Kd", "setting": "hVR1 receptor [3]; pH 7.4", "result": "0.65 ± 0.12", "unit": "nM"}, {"measurement": "Bmax of [^3H]RTX binding to hVR1 receptor", "setting": "hVR1 receptor [3]; pH 8.6", "result": "869 ± 41", "unit": "fmol/mg protein"}, {"measurement": "Kd", "setting": "hVR1 receptor [3]; pH 8.6", "result": "0.18 ± 0.04", "unit": "nM"}, {"measurement": "Bmax of [^3H]RTX binding to hVR1 receptor", "setting": "hVR1 receptor [3]; pH 9.6", "result": "661 ± 127", "unit": "fmol/mg protein"}, {"measurement": "Kd", "setting": "hVR1 receptor [3]; pH 9.6", "result": "0.6 ± 0.31", "unit": "nM"}]}
